Tested on: KRAS patient-derived spheroids with HUVEC/MSC, viability
Assay: Anticancer human tumor 519858-162-T-J1-PDC patient-derived colon adenocarcinoma cell line growth inhibition [KRAS2]
Settings: for IC50: curve of first compound; for viability, T/C: stronger effect = lower value
Summary of the method: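 KRAS-mutant tumor cells were grown as spheroids with HUVEC endothelial cells and human MSCs as stroma. Targeted agents were tested alone and with KRAS pathway inhibitors. Doses started at or near clinical Cmax, or 10 microM, descending half-log.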

[1] = second compound 0.1 µM, first compound 0.0316 µM
[2] = second compound 0.1 µM, first compound 0.1 µM
[3] = second compound 0.1 µM, first compound 0.316 µM
[4] = second compound 0.1 µM, first compound 1 µM
[5] = second compound 0.1 µM, first compound 3.16 µM
[6] = second compound 0.316 µM, first compound 0.0316 µM
[7] = second compound 0.316 µM, first compound 0.1 µM
[8] = second compound 0.316 µM, first compound 0.316 µM
[9] = second compound 0.316 µM, first compound 1 µM
[10] = second compound 0.316 µM, first compound 3.16 µM
[11] = second compound 1 µM, first compound 0.0316 µM
[12] = second compound 1 µM, first compound 0.1 µM
[13] = second compound 1 µM, first compound 0.316 µM
[14] = second compound 1 µM, first compound 1 µM
[15] = second compound 1 µM, first compound 3.16 µM
[16] = second compound 3.16 µM, first compound 0.0316 µM
[17] = second compound 3.16 µM, first compound 0.1 µM
[18] = second compound 3.16 µM, first compound 0.316 µM
[19] = second compound 3.16 µM, first compound 1 µM
[20] = second compound 3.16 µM, first compound 3.16 µM
[21] = second compound 10 µM, first compound 0.0316 µM
[22] = second compound 10 µM, first compound 0.1 µM
[23] = second compound 10 µM, first compound 0.316 µM
[24] = second compound 10 µM, first compound 1 µM
[25] = second compound 10 µM, first compound 3.16 µM
[26] = second compound 0.1 µM, first compound 10 µM
[27] = second compound 0.316 µM, first compound 10 µM
[28] = second compound 1 µM, first compound 10 µM
[29] = second compound 3.16 µM, first compound 10 µM
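Further: compound exposure lasted seven days before readout.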
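Wherever viability, T/C is given: 100% = DMSO vehicle control viability.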

In the case of CC1COCCN1c1cc(-c2ccnn2C)c2ccnc(-c3ccn[nH]3)c2n1 (stereo not given) + CC1OCC2(CCN(c3cnc(Sc4ccnc(N)c4Cl)c(N)n3)CC2)C1N, the IC50 (second compound 0.1 µM) is reported as 2.48 µM, the IC50 (second compound 0.316 µM) is reported as 2.28 µM and the IC50 (second compound 1 µM) is reported as 2.1 µM. The IC50 (second compound 3.16 µM) was > 3.16 µM, the IC50 (second compound 10 µM) was > 3.16 µM and the viability, T/C (second compound 0.1 µM, first compound 0.01 µM) was 97.8%. It also gave a viability, T/C [1] of 89.2%, a viability, T/C [2] of 72.5% and a viability, T/C [3] of 88.4%. It also gave a viability, T/C [4] of 90.1%, a viability, T/C [5] of 40% and a viability, T/C (second compound 0.316 µM, first compound 0.01 µM) of 87%. For the same molecule, the viability, T/C [6] was 75.6%, the viability, T/C [7] was 87.3% and the viability, T/C [8] was 80.4%. For the same molecule, the viability, T/C [9] was 77.7%, the viability, T/C [10] was 39.1% and the viability, T/C (second compound 1 µM, first compound 0.01 µM) was 95.4%. For the same molecule, the viability, T/C [11] was 75.3%, the viability, T/C [12] was 82.2% and the viability, T/C [13] was 75.8%. The viability, T/C [14] was 67.3%, the viability, T/C [15] was 41.1% and the viability, T/C (second compound 3.16 µM, first compound 0.01 µM) was 83.4%. The viability, T/C [16] was 83.9%, the viability, T/C [17] was 65.8% and the viability, T/C [18] was 70.4%. For the same molecule, the viability, T/C [19] was 60.6%, the viability, T/C [20] was 53.9% and the viability, T/C (second compound 10 µM, first compound 0.01 µM) was 81.7%. It also gave a viability, T/C [21] of 74.2%, a viability, T/C [22] of 61.6% and a viability, T/C [23] of 47.7%. The viability, T/C [24] was 51% and the viability, T/C [25] was 53.3%.
With CC1(C)CCC(CN2CCN(c3ccc(C(=O)NS(=O)(=O)c4ccc(NCC5CCOCC5)c([N+](=O)[O-])c4)c(Oc4cnc5[nH]ccc5c4)c3)CC2)=C(c2ccc(Cl)cc2)C1 + C=CC(=O)N1CCN(c2nc(OCC3CCCN3C)nc3c2CCN(c2cccc4cccc(C)c24)C3)CC1CC#N the IC50 (second compound 0.0316 µM) was 8.77 µM, the IC50 (second compound 0.1 µM) was > 10 µM and the IC50 (second compound 0.316 µM) was > 10 µM. It also gave an IC50 (second compound 1 µM) of 3.45 µM, an IC50 (second compound 3.16 µM) of 1.3 µM and a viability, T/C (second compound 0.0316 µM, first compound 0.0316 µM) of 86.4%. For the same molecule, the viability, T/C (second compound 0.0316 µM, first compound 0.1 µM) was 92.8%, the viability, T/C (second compound 0.0316 µM, first compound 0.316 µM) was 76.3% and the viability, T/C (second compound 0.0316 µM, first compound 1 µM) was 88.1%. For the same molecule, the viability, T/C (second compound 0.0316 µM, first compound 3.16 µM) was 87.9%, the viability, T/C (second compound 0.0316 µM, first compound 10 µM) was 45.3% and the viability, T/C [1] was 94.8%. For the same molecule, the viability, T/C [2] was 88.8%, the viability, T/C [3] was 97% and the viability, T/C [4] was 97.3%. The viability, T/C [5] was 93.9%, the viability, T/C [26] was 72.5% and the viability, T/C [6] was 102%. The viability, T/C [7] was 87%, the viability, T/C [8] was 69.6% and the viability, T/C [9] was 106%. For the same molecule, the viability, T/C [10] was 68.7%, the viability, T/C [27] was 57.9% and the viability, T/C [11] was 76.8%. The viability, T/C [12] was 75.6%, the viability, T/C [13] was 87.2% and the viability, T/C [14] was 69%. For the same molecule, the viability, T/C [15] was 53.4%, the viability, T/C [28] was 17.6% and the viability, T/C [16] was 83%. It also gave a viability, T/C [17] of 67%, a viability, T/C [18] of 70.6% and a viability, T/C [19] of 64.7%. For the same molecule, the viability, T/C [20] was 0.7% and the viability, T/C [29] was 0.42%.
For COc1cc(Nc2ncc3c(n2)-c2ccc(Cl)cc2C(c2c(F)cccc2OC)=NC3)ccc1C(=O)O + CNCc1ccccc1-c1csc(C(C)Nc2nc(C)nc3cc(OC)c(OC)cc23)c1, the IC50 (second compound 0.1 µM) was > 10 µM, the IC50 (second compound 0.316 µM) was > 10 µM and the IC50 (second compound 1 µM) was > 10 µM. For the same molecule, the IC50 (second compound 3.16 µM) was > 10 µM, the IC50 (second compound 10 µM) was < 0.0316 µM and the viability, T/C [1] was 95.9%. For the same molecule, the viability, T/C [2] was 93.5%, the viability, T/C [3] was 79.1% and the viability, T/C [4] was 85%. The viability, T/C [5] was 88.4%, the viability, T/C [26] was 103% and the viability, T/C [6] was 96.5%. It also gave a viability, T/C [7] of 91.5%, a viability, T/C [8] of 56.2% and a viability, T/C [9] of 78.6%. The viability, T/C [10] was 87.6%, the viability, T/C [27] was 71.2% and the viability, T/C [11] was 77.2%. For the same molecule, the viability, T/C [12] was 78.2%, the viability, T/C [13] was 73% and the viability, T/C [14] was 70%. The viability, T/C [15] was 71.2%, the viability, T/C [28] was 62.1% and the viability, T/C [16] was 58.2%. It also gave a viability, T/C [17] of 54.6%, a viability, T/C [18] of 60.9% and a viability, T/C [19] of 65.6%. It also gave a viability, T/C [20] of 74.2%, a viability, T/C [29] of 67.4% and a viability, T/C [21] of 0.42%. For the same molecule, the viability, T/C [22] was 0.37%, the viability, T/C [23] was 0.36% and the viability, T/C [24] was 0.31%. For the same molecule, the viability, T/C [25] was 0.37% and the viability, T/C (second compound 10 µM, first compound 10 µM) was 0.84%.

Reference: PubChem BioAssay AID1963872 (Molecular Pharmacology Branch, DTP, NCI, 2024)
